Experimental data reported in patent US7022716B2, “Cyclic amine phenyl beta-3 adrenergic receptor agonists” (Wyeth, priority 2000, dated 2006).

molecular target: T1, human β3 adrenergic receptor (Homo sapiens, UniProt P13945); experiment: cAMP (SPA) response in CHO cells transfected with human β3 adrenergic receptor; format: cell-based; parameters: key: fraction of maximal isoproterenol (10^-5 M) response; conditions: maximal response relative to maximal response of isoproterenol at 10^-5 M
T1 construct: Full length β3 AR clones (402 amino acids) containing the last 6 amino acids of hβ3-AR are prepared; expressed in transfected cells; host or cells: CHO (Chinese hamster ovary) cells
T1 sequence (P13945 whole entry): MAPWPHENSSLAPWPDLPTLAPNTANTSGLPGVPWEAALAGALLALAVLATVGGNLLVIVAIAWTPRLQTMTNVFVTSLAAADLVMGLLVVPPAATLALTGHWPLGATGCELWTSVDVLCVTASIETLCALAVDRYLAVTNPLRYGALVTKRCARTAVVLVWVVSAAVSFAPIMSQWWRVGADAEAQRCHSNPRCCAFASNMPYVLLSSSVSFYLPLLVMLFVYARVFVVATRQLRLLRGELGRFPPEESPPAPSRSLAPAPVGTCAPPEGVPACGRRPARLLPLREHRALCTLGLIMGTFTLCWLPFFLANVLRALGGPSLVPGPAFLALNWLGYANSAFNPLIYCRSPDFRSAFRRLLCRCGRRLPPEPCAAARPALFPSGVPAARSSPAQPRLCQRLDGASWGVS
In short: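 Reactions were stopped with 0.2N HCl and neutralised, and cAMP was measured by SPA. Activity is expressed as percent of the maximal 10^−5 M isoproterenol response.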

SMILES | IA(β3)
COc1ccc(OC)c(S(=O)(=O)Nc2ccc(N3CCC(NC[C@H](O)c4ccc(O)c(NS(C)(=O)=O)c4)CC3)cc2)c1 [Example 335, N-(4-{4-[((2R)-2-Hydroxy-2-{4-hydroxy-3-[(methylsulfonyl)amino]phenyl}ethyl)amino]-1-piperidinyl}phenyl)-2,5-dimethoxybenzenesulfonamide] | 0.98
COc1ccc(Br)cc1S(=O)(=O)N(c1ccc(N2CCC(NC[C@H](O)COc3cccc4[nH]c(=O)[nH]c34)CC2)cc1)S(=O)(=O)c1cc(Br)ccc1OC [Example 337] | 0.72
CCCCS(=O)(=O)N(CC(=O)OCc1ccccc1)c1ccc(N2CCC(NC[C@H](O)c3ccc(O)c(NS(C)(=O)=O)c3)CC2)cc1 [Example 342] | 1
CCCCS(=O)(=O)N(CC(=O)OCC)c1ccc(N2CCC(NC[C@H](O)c3ccc(O)c(NS(C)(=O)=O)c3)CC2)cc1 [Example 345] | 1
O=S(=O)(Nc1ccc(N2CCC(NC[C@H](O)COc3ccccc3)CC2)cc1)c1ccc(Oc2ncc(C(F)(F)F)cc2Cl)cc1 [Example 346, 4-{[3-Chloro-5-(trifluoromethyl)-2-pyridinyl]oxy}-N-[4-(4-{[(2S)-2-hydroxy-3-phenoxypropyl]amino}-1-piperidinyl)phenyl]benzenesulfonamide] | 0.76
O=C(NCc1ccc(S(=O)(=O)Nc2ccc(N3CCC(NC[C@H](O)COc4ccccc4)CC3)cc2)s1)c1ccccc1 [Example 348] | 0.63
O=C(NCc1ccc(S(=O)(=O)Nc2ccc(N3CCC(NCC(O)c4cccc(O)c4)CC3)cc2)s1)c1ccccc1 (centres unmarked) [Example 349, N-[(5-{[4-(4-{[2-Hydroxy-2-(3-hydroxyphenyl)ethyl]amino}-1-piperidinyl)-anilino]sulfonyl}-2-thienyl)methyl]benzamide] | 1.26
O=S(=O)(Nc1ccc(N2CCC(NCC(O)c3cccc(O)c3)CC2)cc1)c1ccc(Oc2ncc(C(F)(F)F)cc2Cl)cc1 (centres unmarked) [Example 351] | 0.76
O=[N+]([O-])c1ccc(Oc2c(Cl)cc(S(=O)(=O)Nc3ccc(N4CCC(NC[C@H](O)COc5ccccc5)CC4)cc3)cc2Cl)c(Cl)c1 [Example 353, 3,5-Dichloro-4-(2-chloro-4-nitrophenoxy)-N-[4-(4-{[(2S)-2-hydroxy-3-phenoxypropyl]amino}-1-piperidinyl)phenyl]benzenesulfonamide] | 0.97
O=[N+]([O-])c1ccc(Oc2c(Cl)cc(S(=O)(=O)Nc3ccc(N4CCC(NCC(O)c5cccc(O)c5)CC4)cc3)cc2Cl)c(Cl)c1 (centres unmarked) [Example 354, 3,5-Dichloro-4-(2-chloro-4-nitrophenoxy)-N-[4-(4-{[2-hydroxy-2-(3-hydroxyphenyl)-ethyl]amino}-1-piperidinyl)phenyl]benzenesulfonamide] | 0.73
O=S(=O)(Nc1ccc(N2CCC(NC[C@@H](O)c3cccc(O)c3)CC2)cc1)c1cccs1 [Example 357, N-[4-(4-{[(2S)-2-Hydroxy-2-(3-hydroxyphenyl)ethyl]amino}-1-piperidinyl)phenyl]-2-thiophenesulfonamide] | 0.87
CCCCOc1ccc(S(=O)(=O)Nc2ccc(N3CCC(NC[C@H](O)COc4cccc5[nH]c(=O)[nH]c45)CC3)cc2)cc1 [Example 358, 4-Butoxy-N-{4-[4-({(2S)-2-hydroxy-3-[(2-oxo-2,3-dihydro-1H-benzimidazol-4-yl)oxy]propyl}amino)-1-piperidinyl]phenyl}benzenesulfonamide] | 1.1
COc1ccc(S(=O)(=O)Nc2ccc(N3CCC(NCC(O)c4cccc(O)c4)CC3)cc2)cc1OC (centres unmarked) [Example 361, N-[4-(4-{[2-Hydroxy-2-(3-hydroxyphenyl)ethyl]amino}-1-piperidinyl)phenyl]-3,4-dimethoxybenzenesulfonamide] | 0.55
CCOC(=O)CC(=O)Nc1ccc(N2CCC(NC[C@H](O)c3ccc(O)c(NS(C)(=O)=O)c3)CC2)cc1 [Example 371, Ethyl 3-(4-{4-[((2R)-2-hydroxy-2-{4-hydroxy-3-[(methylsulfonyl)amino]phenyl}-ethyl)-amino]-1-piperidinyl}anilino)-3-oxopropanoate] | 0.91
CS(=O)(=O)Nc1cc([C@@H](O)CNC2CCN(c3ccc(NC(=O)CC(=O)O)cc3)CC2)ccc1O [Example 372, 3-(4-{4-[((2R)-2-Hydroxy-2-{4-hydroxy-3-[(methylsulfonyl)amino]phenyl}ethyl)amino]-1-piperidinyl}anilino)-3-oxopropanoic acid] | 1
CCOC(=O)CNC(=O)Nc1ccc(N2CCC(NC[C@H](O)c3ccc(O)c(NS(C)(=O)=O)c3)CC2)cc1 [Example 377, Ethyl {[(4-{4-[((2R)-2-hydroxy-2-{4-hydroxy-3-[(methylsulfonyl)amino]phenyl}-ethyl)amino]-1-piperidinyl}anilino)carbonyl]amino}acetate] | 0.66
CS(=O)(=O)Nc1cc([C@@H](O)CNC2CCN(c3ccc(NC(=O)NCC(=O)O)cc3)CC2)ccc1O [Example 378, {[(4-{4-[((2R)-2-Hydroxy-2-{4-hydroxy-3-[(methylsulfonyl)amino]phenyl}ethyl)amino]-1-piperidinyl}anilino)carbonyl]amino}acetic acid] | 0.94

Other lines, results leading:

IA(β3) | SMILES
1 | O=c1[nH]c2cccc(OC[C@@H](O)CNC3CCN(c4ccc(NS(=O)(=O)c5ccc(Cl)cc5)cc4)CC3)c2[nH]1 [Example 331, 4-Chloro-N-{4-[4-({(2S)-2-hydroxy-3-[(2-oxo-2,3-dihydro-1H-benzimidazol-4-yl)oxy]propyl}amino)-1-piperidinyl]phenyl}benzenesulfonamide]
1.1 | CCCCc1ccc(S(=O)(=O)Nc2ccc(N3CCC(NC[C@H](O)COc4cccc5[nH]c(=O)[nH]c45)CC3)cc2)cc1 [Example 332, 4-Butyl-N-{4-[4-({(2S)-2-hydroxy-3-[(2-oxo-2,3-dihydro-1H-benzimidazol-4-yl)oxy]propyl}amino)-1-piperidinyl]phenyl}benzenesulfonamide.]
0.83 | O=c1[nH]c2cccc(OC[C@@H](O)CNC3CCN(c4ccc(NS(=O)(=O)c5cc(Cl)cc(Cl)c5)cc4)CC3)c2[nH]1 [Example 333, 3,5-Dichloro-N-{4-[4-({(2S)-2-hydroxy-3-[(2-oxo-2,3-dihydro-1H-benzimidazol-4-yl)oxy]propyl}amino)-1-piperidinyl]phenyl}benzenesulfonamide]
0.91 | COc1ccc(OC)c(S(=O)(=O)Nc2ccc(N3CCC(NC[C@H](O)COc4cccc5[nH]c(=O)[nH]c45)CC3)cc2)c1 [Example 334, N-{4-[4-({(2S)-2-Hydroxy-3-[(2-oxo-2,3-dihydro-1H-benzimidazol-4-yl)oxy]propyl}-amino)-1-piperidinyl]phenyl}-2,5-dimethoxybenzenesulfonamide]
1 | COc1ccc(Br)cc1S(=O)(=O)Nc1ccc(N2CCC(NC[C@H](O)COc3cccc4[nH]c(=O)[nH]c34)CC2)cc1 [Example 338, 5-Bromo-N-{4-[4-(f{(2S)-2-hydroxy-3-[(2-oxo-2,3-dihydro-1H-benzimidazol-4-yl)oxy]propyl}amino)-1-piperidinyl]phenyl}-2-methoxybenzenesulfonamide]
0.91 | O=C(NCc1ccc(S(=O)(=O)Nc2ccc(N3CCC(NC[C@H](O)COc4cccc5[nH]c(=O)[nH]c45)CC3)cc2)s1)c1ccccc1 [Example 347, N-{[5-({4-[4-({(2S)-2-Hydroxy-3-[(2-oxo-2,3-dihydro-1H-benzimidazol-4-yl)oxy]propyl}amino)-1-piperidinyl]anilino}sulfonyl)-2-thienyl]methyl}benzamide]
1.26 | O=c1[nH]c2cccc(OC[C@@H](O)CNC3CCN(c4ccc(NS(=O)(=O)c5ccc(Oc6ncc(C(F)(F)F)cc6Cl)cc5)cc4)CC3)c2[nH]1 [Example 350, 4-{[3-Chloro-5-(trifluoromethyl)-2-pyridinyl]oxy}-N-{4-[4-({(2S)-2-hydroxy-3-[(2-oxo-2,3-dihydro-1H-benzimidazol-4-yl)oxy]propyl}amino)-1-piperidinyl]phenyl}-benzenesulfonamide]
1.02 | O=c1[nH]c2cccc(OC[C@@H](O)CNC3CCN(c4ccc(NS(=O)(=O)c5cc(Cl)c(Oc6ccc([N+](=O)[O-])cc6Cl)c(Cl)c5)cc4)CC3)c2[nH]1 [Example 352, 3,5-Dichloro-4-(2-chloro-4-nitrophenoxy)-N-{4-[4-({(2S)-2-hydroxy-3-[(2-oxo-2,3-dihydro-1H-benzimidazol-4-yl)oxy]propyl}amino)-1-piperidinyl]phenyl}-benzenesulfonamide]
0.91 | COc1ccc(S(=O)(=O)Nc2ccc(N3CCC(NC[C@H](O)COc4cccc5[nH]c(=O)[nH]c45)CC3)cc2)cc1OC [Example 359, N-{4-[4-({(2S)-2-Hydroxy-3-[(2-oxo-2,3-dihydro-1H-benzimidazol-4-yl)oxy]-propyl}amino)-1-piperidinyl]phenyl}-3,4-dimethoxybenzenesulfonamide]
0.54 | COc1ccc(S(=O)(=O)Nc2ccc(N3CCC(NC[C@H](O)COc4ccccc4)CC3)cc2)cc1OC [Example 360, N-[4-(4-{[(2S)-2-Hydroxy-3-phenoxypropyl]amino}-1-piperidinyl)phenyl]-3,4-dimethoxybenzenesulfonamide]
0.9 | O=c1[nH]c2cccc(OC[C@@H](O)CNC3CCN(c4ccc(NS(=O)(=O)c5cccs5)cc4)CC3)c2[nH]1 [Example 362, N-{4-[4-({(2S)-2-Hydroxy-3-[(2-oxo-2,3-dihydro-1H-benzimidazol-4-yl)oxy]propyl}-amino)-1-piperidinyl]phenyl}-2-thiophenesulfonamide]
0.64 | O=C(CCl)Nc1ccc(N2CCC(NC[C@H](O)COc3cccc4[nH]c(=O)[nH]c34)CC2)cc1 [Example 382, 2-Chloro-N-{4-[4-({(2S)-2-hydroxy-3-[(2-oxo-2,3-dihydro-1H-benzimidazol-4-yl)oxy]propyl}amino)-1-piperidinyl]phenyl}acetamide]
